Values joined by “and” are separate entries in the source; they are usually repeats but may differ in a detail not shown here. Equal entries are not always repeated.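 Where inhibition never reached the appropriate level, the endpoint shown equals the highest concentration tested. Otherwise, values were interpolated linearly from a five-concentration, 48-hour dose response in 96-well plates. GI50 marks 50% less growth. The concentration for full growth arrest is given as TGI.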
Legend:
Assay in all cases: inhibition of tumour cell growth, NCI panel, 48 h
OVCAR-4 ovarian = test system: OVCAR-4 ovarian
SK-MEL-5 melanoma = test system: SK-MEL-5 melanoma
KM12 colon = test system: KM12 colon
HCT-116 colon = test system: HCT-116 colon
786-0 renal = test system: 786-0 renal
SW-620 colon = test system: SW-620 colon
EKVX NSCLC = test system: EKVX NSCLC
OVCAR-3 ovarian = test system: OVCAR-3 ovarian
NCI-H226 lung = test system: NCI-H226 lung
SNB-75 CNS = test system: SNB-75 CNS

Row | SMILES | TGI (OVCAR-4 ovarian) | TGI (SK-MEL-5 melanoma) | TGI (KM12 colon) | TGI (HCT-116 colon) | TGI (786-0 renal) | TGI (SW-620 colon) | TGI (EKVX NSCLC) | TGI (OVCAR-3 ovarian) | TGI (NCI-H226 lung) | TGI (SNB-75 CNS) | GI50 (OVCAR-4 ovarian) [µM] | GI50 (SK-MEL-5 melanoma) [µM] | GI50 (KM12 colon) [µM] | GI50 (HCT-116 colon) [µM] | GI50 (786-0 renal) | GI50 (SW-620 colon) | GI50 (EKVX NSCLC) [µM] | GI50 (OVCAR-3 ovarian) [µM] | GI50 (NCI-H226 lung) [µM] | GI50 (SNB-75 CNS)
1 | CNC(=O)OCc1nc(SSc2nc(COC(=O)NC)c(COC(=O)NC)n2C)n(C)c1COC(=O)NC | > 100 µM | > 100 µM | > 100 µM | > 100 µM | > 100 µM | > 100 µM | > 100 µM | > 100 µM | > 100 µM | > 100 µM |  |  |  |  |  |  |  |  |  | 
2 | OCC1OC(OC2(CO)OC(CO)C(O)C2O)C(O)C(O)C1O (stereo not drawn) | > 100 µM | > 100 µM | > 100 µM | > 100 µM | > 100 µM | > 100 µM | > 100 µM | > 100 µM | > 100 µM | > 100 µM | > 100 | > 100 | > 100 | > 100 | > 100 µM | > 100 µM | > 100 | > 100 | > 100 | > 100 µM
3 | CCOC(=O)C(Cc1ccc(N=NN(C)C)cc1)NC(=O)CC1c2ccccc2-c2ccccc21 (stereo not drawn) | > 100 µM | > 100 µM | > 100 µM | > 100 µM | > 100 µM | > 100 µM | > 100 µM | > 100 µM | > 100 µM | > 100 µM |  |  |  |  |  |  |  |  |  | 
4 | O=C(CI)NC(=O)NC(=O)NCc1ccccc1 | 31 µM | 15.9 µM | 24.9 µM | 12.6 µM | 4.18 µM | 3.78 µM | 39.6 µM | 3.37 µM | 20.4 µM | 29.2 µM | 4.42 | 4.73 | 10.9 | 3.39 | 1.98 µM | 1.77 µM | 17.5 | 1.82 | 4.53 | 11.3 µM
5 | Nc1nc(-c2ccccc2)c(CC(=O)O)s1 | > 100 µM | > 100 µM | > 100 µM | > 100 µM | > 100 µM | > 100 µM | > 100 µM | > 100 µM | > 100 µM | > 100 µM |  |  |  |  |  |  |  |  |  | 
6 | Cn1cc(-c2ccc3ncc(-c4ccc(CC(=O)Nc5cc(C(C)(C)C)nn5C)cc4)cc3c2)cn1 | 5.03 µM | 3 µM | 3 µM | > 20 µM | > 20 µM | > 20 µM | > 20 µM | > 20 µM | 13.3 µM | > 20 µM | 0.687 | 0.756 | 0.151 | 0.887 | 1.28 µM | 1.67 µM | 1.88 | 1.4 | 1.05 | 0.37 µM
7 | O=C(Nc1ccc(-n2cc(-c3ccncc3)c(-c3ccc(Cl)c(O)c3)n2)cc1)c1cc(C(F)(F)F)cc(C(F)(F)F)c1 | 54.6 µM | 3.63 µM | 16.2 µM | 17.5 µM | 13.6 µM | 35.6 µM | > 100 µM | 12.2 µM | 18.8 µM | 28.2 µM | 11.2 | 1.55 | 4.01 | 4.72 | 3.78 µM | 5.4 µM | 22 | 3.44 | 3.63 | 2.82 µM
8 | CCN(CC)CCNc1n[n+]([O-])c2cc([N+](=O)[O-])ccc2[n+]1[O-] | 3.78 µM and 5.62 µM and 6.49 µM | 2.01 µM and 1.56 µM and 1.7 µM | 2.72 µM and 2.99 µM and 2.41 µM | 2.79 µM and 2.39 µM and 2.3 µM | 3.1 µM and 1.63 µM and 1.68 µM | 3.14 µM and 2.45 µM and 2.33 µM | 8.38 µM and 5.78 µM and 5.3 µM | 3.15 µM and 3.02 µM and 3.73 µM | 8.82 µM and 7.74 µM and 7.8 µM | 14.5 µM and 14.3 µM and 10 µM |  |  |  |  | 0.462 µM and 0.239 µM and 0.2 µM | 0.737 µM and 0.304 µM and 0.238 µM |  |  |  | 2.01 µM and 1.16 µM and 0.905 µM
9 | CC(C)N(C(=O)C12C3C4C1C1C4(C#N)C3C12C(=O)O)C(C)C (stereo not drawn) | > 100 µM | > 100 µM | > 100 µM | > 100 µM | > 100 µM | > 100 µM | > 100 µM | > 100 µM | > 100 µM | > 100 µM |  |  |  |  |  |  |  |  |  | 
10 | CN1CCCc2nc3ccccc3n2C1 | > 100 µM | > 100 µM | > 100 µM | > 100 µM | > 100 µM | > 100 µM | > 100 µM | > 100 µM | > 100 µM | > 100 µM |  |  |  |  |  |  |  |  |  | 
11 | O=C(Nc1nc(=S)[nH][nH]1)C(=O)C(c1cnc2ccc([N+](=O)[O-])cc2n1)[N+](=O)[O-] (stereo not drawn) | > 100 µM | > 100 µM | > 100 µM | > 100 µM | > 100 µM | > 100 µM | > 100 µM | > 100 µM | > 100 µM | > 100 µM |  |  |  |  |  |  |  |  |  | 
12 | CC(C)(C)OC(=O)N[C@H]1CC(=O)c2ccccc2N(CC(=O)O)C1=O | > 100 µM | > 100 µM | > 100 µM | 75 µM | > 100 µM | > 100 µM | > 100 µM | > 100 µM | > 100 µM | > 100 µM |  |  |  |  |  |  |  |  |  | 
13 | CCOC(=O)[C@@H](C)C[C@H](Cc1ccccc1)NC(=O)c1csc([C@@H](C[C@H](C(C)C)N(C)C(=O)CNC(=O)[C@H]2CCCCN2C)OC(C)=O)n1 | > 14.3 µM | > 7.3 µM | > 14.3 µM | > 14.3 µM | > 14.3 µM | > 14.3 µM | > 14.3 µM | 1.33 µM | > 14.3 µM | > 14.3 µM | 1.3 | 0.444 | 0.556 | 0.529 | 1.37 µM | 0.733 µM | 1.97 | 0.334 | > 5.67 | 0.534 µM
14 | CCCC(O)[C@@]1(CC)CC(C)C(O)(C2(C)C[C@H](C)[C@@H](C(CC)C(=O)C(C)[C@@H](O)[C@H](C)C3OC(O)(C(CC)C(=O)O)[C@@H](C)C(O)C3CC)O2)O1 (stereo partly drawn) | 6.94 µM | 1.18 µM | 2.06 µM | 1.6 µM | 5.07 µM | 2.9 µM | 4.21 µM | 2.62 µM | 2.99 µM | 2.18 µM |  |  |  |  |  |  |  |  |  | 
15 | O=C1Nc2ccc(-c3cccnc3)cc2/C1=C/c1cc(Br)c(O)c(Br)c1 | > 25 µM | 7.78 µM | 24.8 µM | > 25 µM | > 25 µM | > 25 µM | > 25 µM | 12.8 µM | > 25 µM | > 25 µM | 14.8 | 3.95 | 6.59 | 6.54 | 7.18 µM | 8.23 µM | 10.2 | 5.05 | 8.43 | > 13 µM

Reference: PubChem BioAssay (NCI)
